Laboratory results as given in patent US6291527A (priority 1998, dated 2001).
Structures can show the parent of a compound that is named as a salt.

Experiments:
[1] = animal studies of the three salts vs Ketoprofen acid and Ketoprofen sodium salt: distribution and kinetics; assay type: in vivo, experimental animals; settings: for active substance concentration in the inflamed site: injection, vs Ketoprofen sodium salt; for kinetic parameters after oral administration: vs Ketoprofen acid and Ketoprofen sodium salt
Excerpt: The three above mentioned Ketoprofen salts were compared with Ketoprofen acid and Ketoprofen sodium salt in animal studies.

[2] = system: carrageen edema; assay: carrageen edema test in the rat (hind paw volume, plethysmometer); settings: rat, oral; for evolution of paw volume (delta in ml) at 1st hour / evolution of paw volume (delta in ml) at 2nd hour / evolution of paw volume (delta in ml) at 3rd hour / evolution of paw volume (delta in ml) at 4th hour / evolution of paw volume (delta in ml) at 5th hour / evolution of paw volume (delta in ml) at 6th hour: mean ± MSE; for % inhibition vs controls (paw edema AUC): p < 0.001; for AUC (mean ± MSE) of increase in paw volume: paw volume (delta in ml) vs time (0 to 6 hours), controls 4.23 ± 0.26; for oral ED50 (carrageen edema, extrapolated from AUC): 95% conf. lim. KGS 0.733-1.474, KLS 1.198-1.567
[3] = system: inflammatory exudate (IE); assay: foreign body (sponge) method in the rat: inflammatory exudate volume; assay type: in vivo; settings: for IE (inflammatory exudate) volume / % inhibition versus controls of IE: 8 hours; for IE (inflammatory exudate) volume: mean ± MSE, controls 5.15 ± 0.28
Experimental: (§1) These tests involved the use of 100 male CD strain rats (Charles River, Calco, LC, Italy) weighing 180±8 g. The animals were fasted for 12 hours (water ad libitum) before being used for the experiment.
(§2) The inflammatory reaction with the formation of exudate was induced by using sterilized polyester sponges (4×1.5×0.5 cm) soaked in carrageen dissolved at a 2% concentration in sterile physiological solution. The rats were anesthetized lightly with ether and two sponges per rat were implanted subcutaneously in a previously shaven dorsal area.
(§3) The sponges were removed 8 hours later after having sacrificed the animals by ether euthanasia, and immediately placed in large polyethylene 50 ml test tubes containing 10 ml of heparinized physiological solution. The test tubes were then subjected to centrifugation (1000 rotations; 15 minutes), followed by removal of the sponges and accurate measurement of the volume of the remaining fluid. Always using the Higgs et al. method, the acid lipids present in the fluid were extracted in chloroform with prior dilution in ethanol and acidification to pH 3. After complete evaporation of the chloroform, the remaining dry residue was dissolved in physiological solution and used for the immunoenzymatic assay of prostaglandin E2 (PGE2).
(§4) All the other reagents used for the tests were purchased from Merck-Bracco (Milan, Italy).

[4] = system: prostaglandin E2 (PGE2); assay: foreign body (sponge) method in the rat: PGE2 in the inflammatory exudate (immunoenzymatic assay); assay type: in vivo; settings: rat, oral, listed as KLS; for PGE2 concentration in the inflammatory exudate / % inhibition versus controls of PGE2: 8 hours; for PGE2 concentration in the inflammatory exudate: mean, controls 98.7 ± 4.7
Experimental: as §1, §2, §3, §4

[5] = rat, oral, 0.5 mg/kg, listed as KLS
[6] = rat, oral, 1 mg/kg, listed as KLS
[7] = rat, oral, 2 mg/kg, listed as KLS
[8] = rat, oral, 4 mg/kg, listed as KLS

For CC(C(=O)O)c1cccc(C(=O)c2ccccc2)c1 (stereo not shown) [Ketoprofen Proline salt], the “active substance concentration in the inflamed site” value [1] was “intermediate concentrations between the sodium salt and the Glucosamine salt” and the “kinetic parameters after oral administration” value [1] was “significantly different”.
For CC(C(=O)O)c1cccc(C(=O)c2ccccc2)c1 (stereo not shown) [Ketoprofen Lysine salt], the “evolution of paw volume (delta in ml) at 1st hour” value ([2]; 0.5 mg/kg, controls 0.40 ± 0.02, listed as KLS) was 0.32 ± 0.02 mL, the “evolution of paw volume (delta in ml) at 2nd hour” value ([2]; 0.5 mg/kg, controls 0.71 ± 0.02, listed as KLS) was 0.53 ± 0.03 mL and the “evolution of paw volume (delta in ml) at 3rd hour” value ([2]; 0.5 mg/kg, controls 0.87 ± 0.03, listed as KLS) was 0.66 ± 0.04 mL. For the same compound, the “evolution of paw volume (delta in ml) at 4th hour” value ([2]; 0.5 mg/kg, controls 0.93 ± 0.03, listed as KLS) was 0.70 ± 0.03 mL, the “evolution of paw volume (delta in ml) at 5th hour” value ([2]; 0.5 mg/kg, controls 0.90 ± 0.04, listed as KLS) was 0.68 ± 0.02 mL and the “evolution of paw volume (delta in ml) at 6th hour” value ([2]; 0.5 mg/kg, controls 0.84 ± 0.04, listed as KLS) was 0.64 ± 0.03 mL. The “% inhibition vs controls (paw edema AUC)” value ([2]; 0.5 mg/kg, listed as KLS) was 24.1%, the “AUC (mean ± MSE) of increase in paw volume” value (from here on “AUC (mean ± MSE) of increase”) ([2]; 0.5 mg/kg, listed as KLS, 0.5 mg/kg) was 3.21 ± 0.17 and the “evolution of paw volume (delta in ml) at 1st hour” value ([2]; 1 mg/kg, listed as KLS) was 0.24 ± 0.02 mL. The “evolution of paw volume (delta in ml) at 2nd hour” value ([2]; 1 mg/kg, listed as KLS) was 0.43 ± 0.03 mL, the “evolution of paw volume (delta in ml) at 3rd hour” value ([2]; 1 mg/kg, listed as KLS) was 0.54 ± 0.03 mL and the “evolution of paw volume (delta in ml) at 4th hour” value ([2]; 1 mg/kg, listed as KLS) was 0.59 ± 0.03 mL. For the same compound, the “evolution of paw volume (delta in ml) at 5th hour” value ([2]; 1 mg/kg, listed as KLS) was 0.57 ± 0.03 mL, the “evolution of paw volume (delta in ml) at 6th hour” value ([2]; 1 mg/kg, listed as KLS) was 0.49 ± 0.03 mL and the “% inhibition vs controls (paw edema AUC)” value ([2]; 1 mg/kg, listed as KLS) was 38.0%. The “AUC (mean ± MSE) of increase” value ([2]; 1 mg/kg, listed as KLS, 1 mg/kg) was 2.62 ± 0.12, the “evolution of paw volume (delta in ml) at 1st hour” value ([2]; 2 mg/kg, listed as KLS) was 0.13 ± 0.02 mL and the “evolution of paw volume (delta in ml) at 2nd hour” value ([2]; 2 mg/kg, listed as KLS) was 0.23 ± 0.02 mL. The “evolution of paw volume (delta in ml) at 3rd hour” value ([2]; 2 mg/kg, listed as KLS) was 0.28 ± 0.02 mL, the “evolution of paw volume (delta in ml) at 4th hour” value ([2]; 2 mg/kg, listed as KLS) was 0.29 ± 0.02 mL and the “evolution of paw volume (delta in ml) at 5th hour” value ([2]; 2 mg/kg, listed as KLS) was 0.28 ± 0.02 mL. For the same compound, the “evolution of paw volume (delta in ml) at 6th hour” value ([2]; 2 mg/kg, listed as KLS) was 0.23 ± 0.03 mL, the “% inhibition vs controls (paw edema AUC)” value ([2]; 2 mg/kg, listed as KLS) was 68.6% and the “AUC (mean ± MSE) of increase” value ([2]; 2 mg/kg, listed as KLS, 2 mg/kg) was 1.33 ± 0.07. For the same compound, the “oral ED50 (carrageen edema, extrapolated from AUC)” value [2] was 1.383 mg/kg, the “oral ED50 (carrageen edema, extrapolated from AUC)” value ([2]; listed as KLS) was 1.383 mg/kg and the “control of the inflammatory response to sponge implantation” value ([3]; rat, 0.5, 1, 2 and 4 mg/kg per os) was “able to control the inflammatory response”. For the same compound, the “IE (inflammatory exudate) volume” value [3, 5] was 4.33 ± 0.26 mL, the “% inhibition versus controls of IE” value [3, 5] was 15.9% and the “IE (inflammatory exudate) volume” value [3, 6] was 3.82 ± 0.15 mL. For the same compound, the “% inhibition versus controls of IE” value [3, 6] was 25.8%, the “IE (inflammatory exudate) volume” value [3, 7] was 2.97 ± 0.19 mL and the “% inhibition versus controls of IE” value [3, 7] was 42.3%. For the same compound, the “IE (inflammatory exudate) volume” value [3, 8] was 1.68 ± 0.14 mL, the “% inhibition versus controls of IE” value [3, 8] was 67.4% and the “IE oral ED50” value ([3]; rat, oral, 95% confidence limits KGS 1.802-2.381, KLS 2.334-3.094, 480 min, listed as KLS) was 2.714 mg/kg. The “PGE2 concentration in the inflammatory exudate” value (“PGE2 concentration” for short) ([4]; 0.5 mg/kg) was 78.1 ng/mL, the “% inhibition versus controls of PGE2” value ([4]; 0.5 mg/kg) was 20.9% and the “PGE2 concentration” value ([4]; 1 mg/kg) was 67.9 ng/mL. The “% inhibition versus controls of PGE2” value ([4]; 1 mg/kg) was 31.2%, the “PGE2 concentration” value ([4]; 2 mg/kg) was 55.6 ng/mL and the “% inhibition versus controls of PGE2” value ([4]; 2 mg/kg) was 43.7%. The “PGE2 concentration” value ([4]; 4 mg/kg) was 32.8 ng/mL, the “% inhibition versus controls of PGE2” value ([4]; 4 mg/kg) was 66.8% and the “PGE2 oral ED50” value ([4]; 95% confidence limits KGS 1.848-2.131, KLS 2.215-3.005, 480 min) was 2.610 mg/kg.
With CC(C(=O)O)c1cccc(C(=O)c2ccccc2)c1 (stereo not shown) [Ketoprofen Hydroxyproline salt] the “active substance concentration in the inflamed site” value [1] was “intermediate concentrations between the sodium salt and the Glucosamine salt” and the “kinetic parameters after oral administration” value [1] was “significantly different”.
